Assay results reported in patent US6355799B1, “Substituted benzene compounds, process for their preparation, and herbicidal and defoliant compositions containing them” (ISK Americas Incorporated, priority 1997, dated 2002).

Legend:
Format in all cases: in vivo
[1] = tested on: redroot pigweed (Amaranthus retroflexus, AMARE); assay: Pre-emerge test, greenhouse herbicide activity screening; settings: for phytotoxicity rating AMARE: pre-emerge, 14 days after application, scale 0-100; for Pre-emerge Herbicidal Activity AMARE: phytotoxicity rating 0-100, 14 days after application
In short: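 Compounds in acetone were track-sprayed at 187 l/ha, 15–1000 g ai/ha, onto sandy loam pots. Pre-emerge seeds were sown one day before spraying, with surface watering afterwards. Post-emerge plants were at the 2–3 leaf stage and sprayed with 0.25% v/v non-ionic surfactant. Injury was rated 0–100 at 14 days.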

[2] = tested on: field corn (Zea mays L., var. Dekalb 535, CORN); assay: Post-emerge test, crop safety; settings: post-emerge, 14 days after application, rating scale 0-100
In short: (§1)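 Each test used a mechanized track sprayer delivering 187 l/ha of acetone solution at 15–1000 g ai/ha. Post-emerge foliage at 2–3 leaves was treated with added 0.25% v/v non-ionic surfactant and bottom-watered only. Injury was assessed on day 14, where 100 means total kill.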

[3] = tested on: upland rice (Oryza sp., var. Tebonnet, RICE); assay: Post-emerge test, crop safety; settings: post-emerge, 14 days after application, rating scale 0-100
In short: as §1

[4] = tested on: barnyardgrass (Echinochloa crus-galli, ECHCG); assay: Post-emerge test, greenhouse herbicide activity screening; settings: post-emerge, 14 days after application, rating scale 0-100
In short: as §1

[5] = tested on: ivyleaf morningglory (Ipomoea hederacea, IPOHE); assay: as above; settings: post-emerge, 14 days after application, rating scale 0-100
In short: as §1

[6] = tested on: large crabgrass (Digitaria sanguinalis, DIGSA); assay: as above; settings: post-emerge, 14 days after application, rating scale 0-100
In short: as §1

[7] = tested on: redroot pigweed (Amaranthus retroflexus, AMARE); assay: as above; settings: post-emerge, 14 days after application
In short: as §1

[8] = tested on: velvetleaf (Abutilon theophrasti, ABUTH); assay: as above; settings: post-emerge, 14 days after application, rating scale 0-100
In short: as §1

[9] = tested on: lambsquarters (Chenopodium album, CHEAL); assay: as above; settings: post-emerge, 14 days after application, rating scale 0-100
In short: as §1

[10] = tested on: sicklepod (Cassia obtusifolia, CASOB); assay: as above; settings: post-emerge, 14 days after application, rating scale 0-100
In short: as §1

[11] = tested on: green foxtail (Setaria viridis, SETVI); assay: as above; settings: post-emerge, 14 days after application, rating scale 0-100
In short: as §1

[12] = tested on: johnsongrass (Sorghum halepense, SORHA); assay: as above; settings: post-emerge, 14 days after application, rating scale 0-100
In short: as §1

[13] = tested on: barnyardgrass (Echinochloa crus-galli, ECHCG); assay: Pre-emerge test, greenhouse herbicide activity screening; settings: for phytotoxicity rating ECHCG: pre-emerge, 14 days after application, scale 0-100; for Pre-emerge Herbicidal Activity ECHCG: phytotoxicity rating 0-100, 14 days after application
In short: (§2)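 Plants grown in 10 cm pots of sandy loam mix received acetone-dissolved compounds through a moving flat-fan nozzle. Doses ranged from 15 to 1000 g ai/ha. Pre-emerge pots were seeded one day earlier, post-emerge pots 8–21 days earlier. Fourteen days on, each pot was graded 0–100 for damage.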

[14] = tested on: ivyleaf morningglory (Ipomoea hederacea, IPOHE); assay: as above; settings: for phytotoxicity rating IPOHE: pre-emerge, 14 days after application, scale 0-100; for Pre-emerge Herbicidal Activity IPOHE: phytotoxicity rating 0-100, 14 days after application
In short: as §2

[15] = tested on: large crabgrass (Digitaria sanguinalis, DIGSA); assay: as above; settings: for phytotoxicity rating DIGSA: pre-emerge, 14 days after application, scale 0-100; for Pre-emerge Herbicidal Activity DIGSA: phytotoxicity rating 0-100, 14 days after application
In short: as §2

[16] = tested on: velvetleaf (Abutilon theophrasti, ABUTH); assay: as above; settings: for phytotoxicity rating ABUTH: pre-emerge, 14 days after application, scale 0-100; for Pre-emerge Herbicidal Activity ABUTH: phytotoxicity rating 0-100, 14 days after application
In short: as §2

[17] = tested on: lambsquarters (Chenopodium album, CHEAL); assay: as above; settings: for phytotoxicity rating CHEAL: pre-emerge, 14 days after application, scale 0-100; for Pre-emerge Herbicidal Activity CHEAL: phytotoxicity rating 0-100, 14 days after application
In short: as §2

[18] = tested on: sicklepod (Cassia obtusifolia, CASOB); assay: as above; settings: for phytotoxicity rating CASOB: pre-emerge, 14 days after application, scale 0-100; for Pre-emerge Herbicidal Activity CASOB: phytotoxicity rating 0-100, 14 days after application
In short: as §2

[19] = tested on: green foxtail (Setaria viridis, SETVI); assay: as above; settings: for phytotoxicity rating SETVI: pre-emerge, 14 days after application, scale 0-100; for Pre-emerge Herbicidal Activity SETVI: phytotoxicity rating 0-100, 14 days after application
In short: as §2

[20] = tested on: johnsongrass (Sorghum halepense, SORHA); assay: as above; settings: for phytotoxicity rating SORHA: pre-emerge, 14 days after application, scale 0-100; for Pre-emerge Herbicidal Activity SORHA: phytotoxicity rating 0-100, 14 days after application
In short: as §2

[21] = tested on: field corn (Zea mays L., var. Dekalb 535, CORN); assay: Pre-emerge test, crop safety; settings: for phytotoxicity rating CORN (crop damage): pre-emerge, 14 days after application, scale 0-100; for Pre-emerge Herbicidal Activity CORN: crop damage rating 0-100, 14 days after application
In short: (§3)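 Fourteen days after spraying, crop and weed injury was graded visually from 0, no effect, to 100, every plant dead. Test substances were dissolved in acetone and applied at 15–1000 g ai/ha with a flat-fan nozzle. Application was either pre-emergence, one day after sowing, or post-emergence at the 2–3 leaf stage.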

[22] = tested on: upland rice (Oryza sp., var. Tebonnet, RICE); assay: Pre-emerge test, crop safety; settings: for phytotoxicity rating RICE (crop damage): pre-emerge, 14 days after application, scale 0-100; for Pre-emerge Herbicidal Activity RICE: crop damage rating 0-100, 14 days after application
In short: as §3

[23] = 250 g ai/ha, rating scale 0-100

In the case of COc1c(Br)cc(F)c(-n2c(=O)cc(C(F)(F)F)n(C)c2=O)c1N(C(=O)C=Cc1ccccc1)C(=O)C=Cc1ccccc1 [2-178], the “phytotoxicity rating AMARE” value ([1]; 63 g ai/ha) was 0, the “phytotoxicity rating AMARE” value ([1]; 250 g ai/ha) was 0 and the “CORN phytotoxicity rating (crop damage)” value ([2]; 63 g ai/ha) was 0. For the same compound, the “CORN phytotoxicity rating (crop damage)” value ([2]; 250 g ai/ha) was 0, the “RICE phytotoxicity rating (crop damage)” value ([3]; 63 g ai/ha) was 0 and the “RICE phytotoxicity rating (crop damage)” value ([3]; 250 g ai/ha) was 0. The ECHCG phytotoxicity rating ([4]; 63 g ai/ha) was 0, the ECHCG phytotoxicity rating ([4]; 250 g ai/ha) was 0 and the IPOHE phytotoxicity rating ([5]; 63 g ai/ha) was 30. For the same compound, the IPOHE phytotoxicity rating ([5]; 250 g ai/ha) was 20, the DIGSA phytotoxicity rating ([6]; 63 g ai/ha) was 0 and the DIGSA phytotoxicity rating ([6]; 250 g ai/ha) was 0. For the same compound, the AMARE phytotoxicity rating ([7]; 63 g ai/ha, rating scale 0-100) was 50, the AMARE phytotoxicity rating [7, 23] was 70 and the ABUTH phytotoxicity rating ([8]; 63 g ai/ha) was 40. For the same compound, the ABUTH phytotoxicity rating ([8]; 250 g ai/ha) was 50, the CHEAL phytotoxicity rating ([9]; 63 g ai/ha) was 30 and the CHEAL phytotoxicity rating ([9]; 250 g ai/ha) was 40. It also gave a CASOB phytotoxicity rating ([10]; 63 g ai/ha) of 0, a CASOB phytotoxicity rating ([10]; 250 g ai/ha) of 0 and an SETVI phytotoxicity rating ([11]; 63 g ai/ha) of 0. It also gave an SETVI phytotoxicity rating ([11]; 250 g ai/ha) of 0, an SORHA phytotoxicity rating ([12]; 63 g ai/ha) of 0 and an SORHA phytotoxicity rating ([12]; 250 g ai/ha) of 0. The “phytotoxicity rating ECHCG” value ([13]; 63 g ai/ha) was 0, the “phytotoxicity rating ECHCG” value ([13]; 250 g ai/ha) was 0 and the “phytotoxicity rating IPOHE” value ([14]; 63 g ai/ha) was 0. The “phytotoxicity rating IPOHE” value ([14]; 250 g ai/ha) was 0, the “phytotoxicity rating DIGSA” value ([15]; 63 g ai/ha) was 0 and the “phytotoxicity rating DIGSA” value ([15]; 250 g ai/ha) was 0. The “phytotoxicity rating ABUTH” value ([16]; 63 g ai/ha) was 0, the “phytotoxicity rating ABUTH” value ([16]; 250 g ai/ha) was 0 and the “phytotoxicity rating CHEAL” value ([17]; 63 g ai/ha) was 20. The “phytotoxicity rating CHEAL” value ([17]; 250 g ai/ha) was 0, the “phytotoxicity rating CASOB” value ([18]; 63 g ai/ha) was 0 and the “phytotoxicity rating CASOB” value ([18]; 250 g ai/ha) was 0. The “phytotoxicity rating SETVI” value ([19]; 63 g ai/ha) was 0, the “phytotoxicity rating SETVI” value ([19]; 250 g ai/ha) was 0 and the “phytotoxicity rating SORHA” value ([20]; 63 g ai/ha) was 0. For the same compound, the “phytotoxicity rating SORHA” value ([20]; 250 g ai/ha) was 0, the “phytotoxicity rating CORN (crop damage)” value ([21]; 63 g ai/ha) was 0 and the “phytotoxicity rating CORN (crop damage)” value ([21]; 250 g ai/ha) was 0. For the same compound, the “phytotoxicity rating RICE (crop damage)” value ([22]; 63 g ai/ha) was 0 and the “phytotoxicity rating RICE (crop damage)” value ([22]; 250 g ai/ha) was 0.

With COc1c(Cl)cc(F)c(-n2c(=O)cc(C(F)(F)F)n(C)c2=O)c1NC(=O)OCc1ccc(Cl)c(Cl)c1 [4-32] the “Pre-emerge Herbicidal Activity AMARE” value ([1]; 63 g ai/ha) was 50, the “Pre-emerge Herbicidal Activity AMARE” value ([1]; 250 g ai/ha) was 100 and the “phytotoxicity rating CORN (crop damage)” value ([2]; 63 g ai/ha) was 20. For the same compound, the “phytotoxicity rating CORN (crop damage)” value ([2]; 250 g ai/ha) was 30, the “phytotoxicity rating RICE (crop damage)” value ([3]; 63 g ai/ha) was 20 and the “phytotoxicity rating RICE (crop damage)” value ([3]; 250 g ai/ha) was 40. For the same compound, the “phytotoxicity rating ECHCG” value ([4]; 63 g ai/ha) was 0, the “phytotoxicity rating ECHCG” value ([4]; 250 g ai/ha) was 20 and the “phytotoxicity rating IPOHE” value ([5]; 63 g ai/ha) was 100. For the same compound, the “phytotoxicity rating IPOHE” value ([5]; 250 g ai/ha) was 100, the “phytotoxicity rating DIGSA” value ([6]; 63 g ai/ha) was 10 and the “phytotoxicity rating DIGSA” value ([6]; 250 g ai/ha) was 20. For the same compound, the “phytotoxicity rating AMARE” value ([7]; 63 g ai/ha, rating scale 0-100 (0 no damage, 100 complete death)) was 100, the “phytotoxicity rating AMARE” value [7, 23] was 100 and the “phytotoxicity rating ABUTH” value ([8]; 63 g ai/ha) was 90. The “phytotoxicity rating ABUTH” value ([8]; 250 g ai/ha) was 100, the “phytotoxicity rating CHEAL” value ([9]; 63 g ai/ha) was 100 and the “phytotoxicity rating CHEAL” value ([9]; 250 g ai/ha) was 100. The “phytotoxicity rating CASOB” value ([10]; 63 g ai/ha) was 80, the “phytotoxicity rating CASOB” value ([10]; 250 g ai/ha) was 80 and the “phytotoxicity rating SETVI” value ([11]; 63 g ai/ha) was 30. The “phytotoxicity rating SETVI” value ([11]; 250 g ai/ha) was 50, the “phytotoxicity rating SORHA” value ([12]; 63 g ai/ha) was 10 and the “phytotoxicity rating SORHA” value ([12]; 250 g ai/ha) was 30. For the same compound, the “Pre-emerge Herbicidal Activity ECHCG” value ([13]; 63 g ai/ha) was 0, the “Pre-emerge Herbicidal Activity ECHCG” value ([13]; 250 g ai/ha) was 50 and the “Pre-emerge Herbicidal Activity IPOHE” value ([14]; 63 g ai/ha) was 0. For the same compound, the “Pre-emerge Herbicidal Activity IPOHE” value ([14]; 250 g ai/ha) was 40, the “Pre-emerge Herbicidal Activity DIGSA” value ([15]; 63 g ai/ha) was 20 and the “Pre-emerge Herbicidal Activity DIGSA” value ([15]; 250 g ai/ha) was 80. The “Pre-emerge Herbicidal Activity ABUTH” value ([16]; 63 g ai/ha) was 0, the “Pre-emerge Herbicidal Activity ABUTH” value ([16]; 250 g ai/ha) was 70 and the “Pre-emerge Herbicidal Activity CHEAL” value ([17]; 63 g ai/ha) was 80. The “Pre-emerge Herbicidal Activity CHEAL” value ([17]; 250 g ai/ha) was 100, the “Pre-emerge Herbicidal Activity CASOB” value ([18]; 63 g ai/ha) was 0 and the “Pre-emerge Herbicidal Activity CASOB” value ([18]; 250 g ai/ha) was 30. The “Pre-emerge Herbicidal Activity SETVI” value ([19]; 63 g ai/ha) was 30, the “Pre-emerge Herbicidal Activity SETVI” value ([19]; 250 g ai/ha) was 95 and the “Pre-emerge Herbicidal Activity SORHA” value ([20]; 63 g ai/ha) was 0. For the same compound, the “Pre-emerge Herbicidal Activity SORHA” value ([20]; 250 g ai/ha) was 30, the “Pre-emerge Herbicidal Activity CORN” value ([21]; 63 g ai/ha) was 0 and the “Pre-emerge Herbicidal Activity CORN” value ([21]; 250 g ai/ha) was 10. The “Pre-emerge Herbicidal Activity RICE” value ([22]; 63 g ai/ha) was 0 and the “Pre-emerge Herbicidal Activity RICE” value ([22]; 250 g ai/ha) was 30.
